Measurements: paper PMC12657942, “Measurement and modeling of rizatriptan in supercritical CO2 for pharmaceutical processing” (Scientific Reports, 2025)
≈ marks a conversion by molar mass, not a printed value. Where two headings read alike, the source gives them in different places.

Assay: Solubility of rizatriptan in supercritical CO2, static gravimetric method
Type: physicochemical
Description: A specialized high-pressure system is employed to measure the solubility of rizatriptan using gravimetric techniques in a supercritical CO2[6]. A 200 mL vessel capable of withstanding pressures up to 35 MPa and temperatures up to 423 K is prepared with leak-free seals, valves, and fittings. All valves and connectors were 1/8 inch in size. The system’s pressure and temperature sensors are calibrated for accuracy. Next, 2000 mg of rizatriptan powder is weighed precisely using an analytical balance with 0.01 mg of sensitivity. The powder is then compacted into 5-mm diameter tablets to ensure uniformity and structural integrity. The tablets are placed in a basket inside the vessel to maximize their exposure to SC-CO2. CO2 is introduced gradually using a high-precision pump (SC-1000, SUPEREX), with the pressure increased in 0.05 MPa increments to maintain stability. The pressure is monitored and held within ± 0.01 MPa. Temperature is controlled within ± 0.1 K using a thermocouple, and the mixture is stirred at 250 rpm to ensure uniformity. […] The pressure and temperature indicators are checked to ensure stability. After equilibration, the vessel is carefully depressurized to ambient conditions to halt dissolution without losing the sample. The remaining tablets are then removed and cleaned of residual CO2. If needed, they are dried in a desiccator. The undissolved drug is weighed using a high-precision balance. The experiment is replicated at least three times to calculate the mean solubility and standard deviation. The following formula was used to calculate the mass of dissolved rizatriptan:1
Include the molecular weights of rizatriptan ([…]) and CO2 (44.01 g/mol) in the mole fraction calculations.2 3 4 5
The measurements were conducted at four isotherms (308.2 K, 318.2 K, 328.2 K, and 338.2 K) and […] pressure points (12, 15, 18, 21, 24, 27, 30 MPa). Table 3 documents the experimental conditions, including temperature, pressure, SC-CO2 density, mole fraction, standard deviation, and solubility in grams per liter.

Experimental mole fraction (y) in supercritical carbon dioxide, y × 10^4 (T 328.0 K (text 328.2 K), P 30 MPa, ρCO2 850.83 kg/m^3): 0.380 × 10^4
Experimental mole fraction (y) in supercritical carbon dioxide, y × 10^4 (T 338.0 K (text 338.2 K), P 12 MPa, ρCO2 384.17 kg/m^3): 0.024 × 10^4
Experimental mole fraction (y) in supercritical carbon dioxide, y × 10^4 (T 338.0 K (text 338.2 K), P 15 MPa, ρCO2 555.33 kg/m^3): 0.136 × 10^4
Experimental mole fraction (y) in supercritical carbon dioxide, y × 10^4 (T 338.0 K (text 338.2 K), P 18 MPa, ρCO2 651.28 kg/m^3): 0.213 × 10^4
Experimental mole fraction (y) in supercritical carbon dioxide, y × 10^4 (T 338.0 K (text 338.2 K), P 21 MPa, ρCO2 709.59 kg/m^3): 0.279 × 10^4
Experimental mole fraction (y) in supercritical carbon dioxide, y × 10^4 (T 338.0 K (text 338.2 K), P 24 MPa, ρCO2 751.27 kg/m^3): 0.334 × 10^4
Experimental mole fraction (y) in supercritical carbon dioxide, y × 10^4 (T 338.0 K (text 338.2 K), P 27 MPa, ρCO2 783.19 kg/m^3): 0.388 × 10^4
Experimental mole fraction (y) in supercritical carbon dioxide, y × 10^4 (T 338.0 K (text 338.2 K), P 30 MPa, ρCO2 809.68 kg/m^3): 0.419 × 10^4
crossover pressure (solubility isotherms 308.2–338.2 K in SC-CO2): approximately 15 MPa
solubility at 240 min (supercritical CO2, 308.2 K to 338.2 K, 12 to 30 MPa, read-out: solubility (dissolution concentration) in SC-CO2, range over all conditions): 8 to 302 µg/mL (≈ 29.7 to 1120 µM)
solubility at 240 min (supercritical CO2, T 308.0 K (text 308.2 K), P 12 MPa, ρCO2 768.52 kg/m^3, read-out: Solubility in supercritical carbon dioxide): 61.6 µg/mL (≈ 229 µM)
solubility at 240 min (supercritical CO2, T 308.0 K (text 308.2 K), P 15 MPa, ρCO2 816.10 kg/m^3, read-out: Solubility in supercritical carbon dioxide): 88 µg/mL (≈ 327 µM)
solubility at 240 min (supercritical CO2, T 308.0 K (text 308.2 K), P 18 MPa, ρCO2 816.10 kg/m^3, read-out: Solubility in supercritical carbon dioxide): 107 µg/mL (≈ 396 µM)
solubility at 240 min (supercritical CO2, T 308.0 K (text 308.2 K), P 21 MPa, ρCO2 874.55 kg/m^3, read-out: Solubility in supercritical carbon dioxide): 138 µg/mL (≈ 512 µM)
solubility at 240 min (supercritical CO2, T 308.0 K (text 308.2 K), P 24 MPa, ρCO2 895.66 kg/m^3, read-out: Solubility in supercritical carbon dioxide): 181 µg/mL (≈ 672 µM)
solubility at 240 min (supercritical CO2, T 308.0 K (text 308.2 K), P 27 MPa, ρCO2 913.70 kg/m^3, read-out: Solubility in supercritical carbon dioxide): 210 µg/mL (≈ 779 µM)
solubility at 240 min (supercritical CO2, T 308.0 K (text 308.2 K), P 30 MPa, ρCO2 929.85 kg/m^3, read-out: Solubility in supercritical carbon dioxide): 237 µg/mL (≈ 878 µM)
solubility at 240 min (supercritical CO2, T 318.0 K (text 318.2 K), P 12 MPa, ρCO2 659.80 kg/m^3, read-out: Solubility in supercritical carbon dioxide): 40.6 µg/mL (≈ 151 µM)
solubility at 240 min (supercritical CO2, T 318.0 K (text 318.2 K), P 15 MPa, ρCO2 743.83 kg/m^3, read-out: Solubility in supercritical carbon dioxide): 83.5 µg/mL (≈ 310 µM)
solubility at 240 min (supercritical CO2, T 318.0 K (text 318.2 K), P 18 MPa, ρCO2 790.29 kg/m^3, read-out: Solubility in supercritical carbon dioxide): 114 µg/mL (≈ 423 µM)
solubility at 240 min (supercritical CO2, T 318.0 K (text 318.2 K), P 21 MPa, ρCO2 823.80 kg/m^3, read-out: Solubility in supercritical carbon dioxide): 158 µg/mL (≈ 585 µM)
solubility at 240 min (supercritical CO2, T 318.0 K (text 318.2 K), P 24 MPa, ρCO2 850.15 kg/m^3, read-out: Solubility in supercritical carbon dioxide): 213 µg/mL (≈ 790 µM)
solubility at 240 min (supercritical CO2, T 318.0 K (text 318.2 K), P 27 MPa, ρCO2 872.14 kg/m^3, read-out: Solubility in supercritical carbon dioxide): 250 µg/mL (≈ 928 µM)
solubility at 240 min (supercritical CO2, T 318.0 K (text 318.2 K), P 30 MPa, ρCO2 890.90 kg/m^3, read-out: Solubility in supercritical carbon dioxide): 269 µg/mL (≈ 998 µM)
solubility at 240 min (supercritical CO2, T 328.0 K (text 328.2 K), P 12 MPa, ρCO2 506.75 kg/m^3, read-out: Solubility in supercritical carbon dioxide): 20.4 µg/mL (≈ 75.7 µM)
solubility at 240 min (supercritical CO2, T 328.0 K (text 328.2 K), P 15 MPa, ρCO2 654.94 kg/m^3, read-out: Solubility in supercritical carbon dioxide): 57.8 µg/mL (≈ 215 µM)
solubility at 240 min (supercritical CO2, T 328.0 K (text 328.2 K), P 18 MPa, ρCO2 724.13 kg/m^3, read-out: Solubility in supercritical carbon dioxide): 114 µg/mL (≈ 421 µM)
solubility at 240 min (supercritical CO2, T 328.0 K (text 328.2 K), P 21 MPa, ρCO2 768.74 kg/m^3, read-out: Solubility in supercritical carbon dioxide): 165 µg/mL (≈ 613 µM)
solubility at 240 min (supercritical CO2, T 328.0 K (text 328.2 K), P 24 MPa, ρCO2 801.92 kg/m^3, read-out: Solubility in supercritical carbon dioxide): 216 µg/mL (≈ 800 µM)
solubility at 240 min (supercritical CO2, T 328.0 K (text 328.2 K), P 27 MPa, ρCO2 828.51 kg/m^3, read-out: Solubility in supercritical carbon dioxide): 260 µg/mL (≈ 966 µM)
solubility at 240 min (supercritical CO2, T 328.0 K (text 328.2 K), P 30 MPa, ρCO2 850.83 kg/m^3, read-out: Solubility in supercritical carbon dioxide): 288 µg/mL (≈ 1070 µM)
solubility at 240 min (supercritical CO2, T 338.0 K (text 338.2 K), P 12 MPa, ρCO2 384.17 kg/m^3, read-out: Solubility in supercritical carbon dioxide): 8.3 µg/mL (≈ 30.8 µM)
solubility at 240 min (supercritical CO2, T 338.0 K (text 338.2 K), P 15 MPa, ρCO2 555.33 kg/m^3, read-out: Solubility in supercritical carbon dioxide): 67.5 µg/mL (≈ 251 µM)
solubility at 240 min (supercritical CO2, T 338.0 K (text 338.2 K), P 18 MPa, ρCO2 651.28 kg/m^3, read-out: Solubility in supercritical carbon dioxide): 124 µg/mL (≈ 459 µM)
solubility at 240 min (supercritical CO2, T 338.0 K (text 338.2 K), P 21 MPa, ρCO2 709.59 kg/m^3, read-out: Solubility in supercritical carbon dioxide): 176 µg/mL (≈ 655 µM)
solubility at 240 min (supercritical CO2, T 338.0 K (text 338.2 K), P 24 MPa, ρCO2 751.27 kg/m^3, read-out: Solubility in supercritical carbon dioxide): 223 µg/mL (≈ 829 µM)
solubility at 240 min (supercritical CO2, T 338.0 K (text 338.2 K), P 27 MPa, ρCO2 783.19 kg/m^3, read-out: Solubility in supercritical carbon dioxide): 270 µg/mL (≈ 1000 µM)
solubility at 240 min (supercritical CO2, T 338.0 K (text 338.2 K), P 30 MPa, ρCO2 809.68 kg/m^3, read-out: Solubility in supercritical carbon dioxide): 302 µg/mL (≈ 1120 µM)
SMILES: CN(C)CCc1c[nH]c2ccc(Cn3cncn3)cc12 [Rizatriptan, Rizatriptan benzoate]
